Read-outs that look alike come from different tables or passages of the source.
Molecular target: T1, androgen receptor (AR) (Homo sapiens, UniProt P10275)
T1 sequence (P10275 1-920): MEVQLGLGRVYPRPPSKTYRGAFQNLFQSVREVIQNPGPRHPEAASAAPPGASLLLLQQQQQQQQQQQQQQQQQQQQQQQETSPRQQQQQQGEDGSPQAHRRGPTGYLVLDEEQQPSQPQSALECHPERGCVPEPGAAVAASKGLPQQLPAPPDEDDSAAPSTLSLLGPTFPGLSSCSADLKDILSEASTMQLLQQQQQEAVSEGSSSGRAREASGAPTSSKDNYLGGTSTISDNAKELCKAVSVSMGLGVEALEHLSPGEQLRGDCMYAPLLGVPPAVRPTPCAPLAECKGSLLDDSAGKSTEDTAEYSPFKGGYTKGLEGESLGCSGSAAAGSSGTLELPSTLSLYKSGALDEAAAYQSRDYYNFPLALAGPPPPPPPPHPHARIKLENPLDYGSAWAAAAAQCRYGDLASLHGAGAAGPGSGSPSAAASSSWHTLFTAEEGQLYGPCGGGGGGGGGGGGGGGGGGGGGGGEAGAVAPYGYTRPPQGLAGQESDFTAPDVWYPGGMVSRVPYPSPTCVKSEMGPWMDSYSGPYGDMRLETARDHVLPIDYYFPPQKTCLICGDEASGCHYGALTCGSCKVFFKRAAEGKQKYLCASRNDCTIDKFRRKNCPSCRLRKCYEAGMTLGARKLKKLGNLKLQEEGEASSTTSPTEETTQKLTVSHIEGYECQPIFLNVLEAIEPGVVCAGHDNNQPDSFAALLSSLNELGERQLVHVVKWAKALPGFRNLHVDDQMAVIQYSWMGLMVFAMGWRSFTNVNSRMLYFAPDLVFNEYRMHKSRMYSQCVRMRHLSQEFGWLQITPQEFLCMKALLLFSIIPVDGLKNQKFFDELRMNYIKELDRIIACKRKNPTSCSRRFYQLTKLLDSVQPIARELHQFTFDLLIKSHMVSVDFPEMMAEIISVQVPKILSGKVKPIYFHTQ
Test: Degradation of androgen receptor (AR) protein in VCaP cells by ELISA
Format: cell-based
Details: for Dmax: VCaP

[1] = AR degradation, VCaP cells, 16 h, ELISA, Table 3-1, read-out: DC50
[2] = AR degradation, VCaP cells, 16 h, ELISA, Table 3-1, read-out: Dmax (%)

SMILES	DC50 [1] [nM]	Dmax [2] [%]	Dmax [%]	DC50 [nM]	Dmax (%) (AR degradation, VCaP cells, 16 h, ELISA, Table 3-1)
C[C@@H]1CN(c2ccc(C(=O)N[C@H]3CC[C@H](Oc4ccc(C#N)c(Cl)c4)CC3)nn2)CCN1C[C@H]1[C@@H]2CN(c3cc4c(cc3F)C(=O)N(C3CCC(=O)NC3=O)C4=O)C[C@@H]21 (some centres unmarked) [Compound 265]	10 to 100	60 to 80			
C[C@@H]1CN(c2cnc(C(=O)N[C@H]3CC[C@H](Oc4ccc(C#N)c(Cl)c4)CC3)cn2)CCN1C[C@H]1[C@@H]2CN(c3cc4c(cc3F)C(=O)N(C3CCC(=O)NC3=O)C4=O)C[C@@H]21 (stereo partly drawn) [Compound 266, N-((1r,4R)-4-(3-chloro-4-cyanophenoxy)cyclohexyl)-5-((3R)-4-((1R,5S,6s)-3-(2-(2,6-dioxopiperidin-3-yl)-6-fluoro-1,3-dioxoisoindolin-5-yl)-3-azabicyclo[3.1.0]n-hexane-6-yl)methyl-3-methylpiperazin-1-yl)pyrazine-2-carboxamide]	10 to 100	> 80			
N#Cc1ccc(O[C@H]2CC[C@H](NC(=O)c3cnc(N4CCC(CN5CCC6(CC5)CN(c5ccc7c(c5)C(=O)N(C5CCC(=O)NC5=O)C7=O)C6)CC4)nc3)CC2)cc1Cl (some centres unmarked) [Compound 267]	< 10	> 80			
N#Cc1ccc(O[C@H]2CC[C@H](NC(=O)c3cnc(N4CCC(CN5CCC6(CC5)CN(c5cc7c(cc5F)C(=O)N(C5CCC(=O)NC5=O)C7=O)C6)CC4)nc3)CC2)cc1Cl (some centres unmarked) [Compound 268]	< 10	> 80			
N#Cc1ccc(O[C@H]2CC[C@H](NC(=O)c3ccc(N4CCC5(CC4)CC(N4CCN(c6cc7c(cc6F)C(=O)N(C6CCC(=O)NC6=O)C7=O)CC4)C5)nn3)CC2)cc1Cl (some centres unmarked) [Compound 269]	< 10	> 80			
N#Cc1ccc(O[C@H]2CC[C@H](NC(=O)c3ccc(N4CCN(C5CC6(CCN(c7cc8c(cc7F)C(=O)N(C7CCC(=O)NC7=O)C8=O)CC6)C5)CC4)nn3)CC2)cc1Cl (some centres unmarked) [Compound 270, N-((1r,4r)-4-(3-chloro-4-cyanophenoxy)cyclohexyl)-6-(4-(7-(2-(2,6-dioxopiperidin-3-yl)-6-fluoro-13-dioxoisoindolin-5-yl) -7-azaspiro[3.5]nonan-2-yl)piperazin-1-yl)pyridazine-3-formamide]	< 10	> 80			
N#Cc1ccc(O[C@H]2CC[C@H](NC(=O)c3ccc(N4CCN(C5CC6(CCN(c7ccc8c(c7)C(=O)N(C7CCC(=O)NC7=O)C8=O)CC6)C5)CC4)nn3)CC2)cc1Cl (some centres unmarked) [Compound 271, N-((1r,4r)-4-(3-chloro-4-cyanophenoxy)cyclohexyl)-6-(4-(7-(2-(2,6-dioxopiperidin-3-yl)-1,3-dioxoisoindolin-5-yl)-7-azaspiro[3.5]nonan-2-yl)piperazin-1-yl)pyridazine-3-formamide]	< 10	> 80			
N#Cc1ccc(O[C@H]2CC[C@H](NC(=O)c3cnc(N4CC5CN(CC6CCN(c7cc8c(cc7F)C(=O)N(C7CCC(=O)NC7=O)C8=O)CC6)CC5C4)nc3)CC2)cc1Cl (some centres unmarked) [Compound 272]	< 10	> 80			
N#Cc1ccc(O[C@H]2CC[C@H](NC(=O)c3cnc(N4CC5(CCN(C6CCN(c7cc8c(cc7F)C(=O)N(C7CCC(=O)NC7=O)C8=O)CC6)CC5)C4)nc3)CC2)cc1Cl (some centres unmarked) [Compound 273, N-((1r,4r)-4-(3-chloro-4-cyanophenoxy)cyclohexyl)-2-(7-(1-(2-(2,6-dioxopiperidin-3-yl)-6-fluoro-1,3-dioxoisoindolin-5-yl)piperidine-4-yl)-2,7-diazaspiro[3.5]nonan-2-yl)pyrimidine-5-carboxamide]	10 to 100		60 to 80		
N#Cc1ccc(O[C@H]2CC[C@H](NC(=O)c3ccc(N4CCC(CN5CCC6(CC5)CN(c5ccc7c(c5)C(=O)N(C5CCC(=O)NC5=O)C7=O)C6)CC4)nn3)CC2)cc1Br (some centres unmarked) [Compound 274, N-((1r,4r)-4-(3-bromo-4-cyanophenoxy)cyclohexyl)-6-(4-((2-(2-(2-,2,6-dioxopiperidin-3-yl)-1,3-dioxoisoindolin-5-yl)-2,7-diazaspiro[3.5]nonan-7-yl)methyl)piperidin-1-yl)pyridazine-3-carboxamide]			> 80	< 10	
Cc1cc(O[C@H]2CC[C@H](NC(=O)c3ccc(N4CCC(CN5CCC6(CC5)CN(c5ccc7c(c5)C(=O)N(C5CCC(=O)NC5=O)C7=O)C6)CC4)nn3)CC2)ccc1C#N (some centres unmarked) [Compound 275]			> 80	< 10	
COc1cc(O[C@H]2CC[C@H](NC(=O)c3ccc(N4CCC(CN5CCC6(CC5)CN(c5ccc7c(c5)C(=O)N(C5CCC(=O)NC5=O)C7=O)C6)CC4)nn3)CC2)ccc1C#N (some centres unmarked) [Compound 276, N-((1r,4r)-4-(4-cyano-3-methoxyphenoxy)cyclohexyl)-6-(4-((2-(2-(2,6-dioxopiperidin-3-yl)-1,3-dioxoisoindolin-5-yl)-2,7-diazaspiro[3.5]nonan-7-yl)methyl)piperidin-1-yl)pyridazine-3-carboxamide]	< 10	> 80			
N#Cc1ccc(O[C@H]2CC[C@H](NC(=O)c3cnc(N4CCN(C5CC6(CCN(c7cc8c(cc7F)C(=O)N(C7CCC(=O)NC7=O)C8=O)CC6)C5)CC4)cn3)CC2)cc1Cl (some centres unmarked) [Compound 277, N-((1r,4r)-4-(3-chloro-4-cyanophenoxy)cyclohexyl)-5-(4-(7-(2-(2,6-dioxopiperidin-3-yl)-6-fluoro-1,3-dioxoisoindolin-5-yl)-7-azaspiro[3.5]nonan-2-yl)piperazin-1-yl)pyrazine-2-carboxamide]	10 to 100	> 80			
N#Cc1ccc(OC2CCC(NC(=O)c3cnc(N4CCN(C5CC6(CCN(c7ccc8c(c7)C(=O)N(C7CCC(=O)NC7=O)C8=O)CC6)C5)CC4)cn3)CC2)cc1Cl (centres unmarked) [Compound 278, N-((1r,4r)-4-(3-chloro-4-cyanophenoxy)cyclohexyl)-5-(4-(7-(2-(2,6-dioxopiperidin-3-yl)-1,3-dioxoisoindolin-5-yl)-7-azaspiro[3.5]nonan-2-yl)piperazin-1-yl)pyrazine-2-carboxamide]	< 10				++++ (>80%)
N#Cc1ccc(O[C@H]2CC[C@H](NC(=O)c3cnc(N4CCC(CN5CCC6(CC5)CN(c5ccc7c(c5)C(=O)N(C5CCC(=O)NC5=O)C7=O)C6)CC4)nn3)CC2)cc1Cl (some centres unmarked) [Compound 279, N-((1r,4r)-4-(3-chloro-4-cyanophenoxy)cyclohexyl)-3-(4-((2-(2-(2,6-dioxopiperidin-3-yl)-1,3-dioxoisoindolin-5-yl)-2,7-diazaspiro[3.5]nonane-7-yl)methyl)piperidin-1-yl)-1,2,4-triazine-6-formamide]			> 80	< 10	
N#Cc1ccc(O[C@H]2CC[C@H](NC(=O)c3cnc(N4CCC(N5CCC6(CC5)CN(c5ccc7c(c5)C(=O)N(C5CCC(=O)NC5=O)C7=O)C6)CC4)cn3)CC2)cc1Cl (some centres unmarked) [Compound 280, N-((1r,4r)-4-(3-chloro-4-cyanophenoxy)cyclohexyl)-5-(4-(2-(2-(2,6-dioxopiperidin-3-yl)-1,3-dioxoisoindolin-5-yl)-2,7-diazaspiro[3.5]nonan-7-yl)piperidin-1-yl)pyrazine-2-carboxamide]	10 to 100	> 80			
N#Cc1ccc(O[C@H]2CC[C@H](NC(=O)c3ccc(N4CCC(N5CCC6(CC5)CN(c5ccc7c(c5)C(=O)N(C5CCC(=O)NC5=O)C7=O)C6)CC4)nn3)CC2)cc1Cl (some centres unmarked) [Compound 281, N-((1r,4r)-4-(3-chloro-4-cyanophenoxy)cyclohexyl)-6-(4-(2-(2-(2,6-dioxopiperidin-3-yl)-1,3-dioxoisoindolin-5-yl)-2,7-diazaspiro[3.5]nonan-7-yl)piperidin-1-yl)pyridazine-3-formamide]	< 10	> 80			
N#Cc1ccc(O[C@H]2CC[C@H](NC(=O)c3ccc(N4CC5(CCN(CC6CCN(c7ccc8c(c7)C(=O)N(C7CCC(=O)NC7=O)C8=O)CC6)CC5)C4)nn3)CC2)cc1Cl (some centres unmarked) [Compound 282, N-((1r,4r)-4-(3-chloro-4-cyanophenoxy)cyclohexyl)-6-(7-((1-(2-(2,6-dioxopiperidin-3-yl)-1,3-dioxoisoindolin-5-yl)piperidine-4-yl)methyl)-2,7-diazaspiro[3.5]nonan-2-yl)pyridazine-3-formamide]	< 10	> 80			
N#Cc1ccc(O[C@H]2CC[C@H](NC(=O)c3cnc(N4CC5(CCN(CC6CCN(c7ccc8c(c7)C(=O)N(C7CCC(=O)NC7=O)C8=O)CC6)CC5)C4)cn3)CC2)cc1Cl (some centres unmarked) [Compound 283, N-((1r,4r)-4-(3-chloro-4-cyanophenoxy)cyclohexyl)-6-(7-((1-(2-(2,6-dioxopiperidin-3-yl)-1,3-dioxoisoindolin-5-yl)piperidine-4-yl)methyl)-2,7-diazaspiro[3.5]nonan-2-yl)pyrazine-3-formamide]	< 10	> 80			

— patent US20230091225A1, “Bifunctional chimeric heterocyclic compounds for targeted degradation of androgen receptors and use thereof” (HINOVA PHARMACEUTICALS INC., priority 2019, published 2023)
